Measurements as given in PMC5133935, “Hydrostatin-TL1, an Anti-Inflammatory Active Peptide from the Venom Gland of Hydrophis cyanocinctus in the South China Sea” (International Journal of Molecular Sciences, 2016).
“Also recorded” adds a separate entry of the source. No end group written: not given here.

Tests used:
[1] = system: NF-κB and MAPK activation in colonic tissue of DSS mice; assay: Western blot of colonic tissue in DSS-induced colitis; type: in vivo, mouse; conditions: H-TL1 vs. vehicle, p-ERK (Thr202/Tyr204), p-JNK (Thr183/Tyr185), p-IκB (Ser32/36)
Description: (§1) For Western blotting, the cell or tissue specimen extracts were resolved in a 10% SDS-PAGE gel, and then the separated proteins were transferred to a nitrocellulose filter membrane. The antigens were detected by using specific antibodies against total and phosphorylated IκB, p38, ERK, and JNK followed by incubation with the respective secondary antibodies. GAPDH was simultaneously detected as the control to compare the protein loading in each lane. The mouse monoclonal anti-IκB, mouse monoclonal anti-p-IκB (Ser32/36), rabbit monoclonal anti-ERK, and rabbit monoclonal anti-p-ERK (Thr202/Tyr204) antibodies were from Cell Signaling Technologies (Beverly, MA, USA). The mouse polyclonal anti-p-p38 (Thr180/Tyr182), rabbit polyclonal anti-p38, rabbit monoclonal anti-p-JNK (Thr183/Tyr185), and mouse monoclonal anti-JNK antibodies were from Thermo Fisher Scientific (Rockford, IL, USA). The rabbit monoclonal anti-GAPDH antibody was from Santa Cruz Biotechnology (Santa Cruz, CA, USA), and the fluorescent-labeled secondary antibodies were from Li-COR Biosciences (Lincoln, NE, USA).
To induce colitis, 6–8 week old male BALB/c mice were administered 2.5% DSS solution in their drinking water for 7–8 consecutive days, ad libitum. […] DAI was monitored during the entire experiment and was assessed according to the method described in Table 1.

[2] = system: TNF-α/TNFR2; assay: Competitive ELISA, inhibition of TNF-α binding to TNFR2; set-up: species or system human; conditions: sTNFR2-coated plate, H-TL1 0–1 μM, n = 3
[3] = system: HEK-293 cells, TNF-α-induced expression of pro-inflammatory factors; assay: Real-time PCR, TNF-α-induced gene expression in HEK-293 cells; type: cell-based, human; conditions: TNF-α 20 ng/mL, 2^−ΔΔCt, GAPDH, n = 3
Source text: NF-κB activation through TNF-α/TNFR interactions upregulates the expression of chemokines and adhesion factors such as IL-8, TNF-α, ICAM-1, and VCAM-1 [25, 26]. To determine whether H-TL1 inhibits TNF-α-mediated pro-inflammatory activity, we further assessed the inhibitory activity of H-TL1 on TNF-α-induced expression of these genes in HEK-293 cells.
The H. cyanocinctus specimens were captured during September 2005 in the South China Sea near Guangdong Province, People’s Republic of China. After collection, the snakes were killed, and the venom glands were isolated and immediately frozen in liquid nitrogen until use. HEK-293 human embryonic kidney and L929 mouse fibroblast cell lines were obtained from ATCC and cultured in Dulbecco’s modified Eagle’s medium (DMEM, Sigma-Aldrich, St. Louis, MO, USA) containing 10% (v/v) heat-inactivated fetal bovine serum (FBS, Gibco, BRL, Grand Island, NY, USA) at 37 °C in an atmosphere of 5% CO2. The BLT5403 E. coli strain (used as the phage host strain) was from Novagen (Merck) and was cultured at 37 °C for propagation. The specific pathogen-free (SPF) male BALB/c and C57BL/6 mice (both 6–8 weeks old), weighing 20 ± 2 g were purchased from Shanghai SLAC Laboratory Animal Co., Ltd. (Shanghai, China). The mice were housed in animal facilities with 50% humidity under a 12-h light-dark cycle, fed a standard pellet diet, and provided with tap water ad libitum. The animal experimental protocols in this research, including venom gland isolation and the mouse study, were approved by the Animal Care and Use Committee of the Second Military Medical University.
(§2) Total RNA was extracted from colon tissue specimens or cells using Trizol reagent (Takara) according to the manufacturer’s instructions and was then reverse transcribed using random primers. Real-time PCR was performed on a StepOne Real-Time PCR System (Applied Biosystems, Foster City, CA, USA) to analyze the mRNA expression levels of IL-8, TNF-α, IL-1β, IL-6, VCAM-1, and ICAM-1. The relative fold changes of target gene expression were comparatively quantified by the 2^−ΔΔCt method. GAPDH was chosen as the internal control gene, and samples without treatment were designated as the comparing reference. Primers used in this study were based on published sequences.

[4] = system: IL-1β-induced phosphorylation of IκB; assay: Western blot, IL-1β-induced phosphorylation of IκB; type: cell-based; conditions: IL-1β as activator of NF-κB
Source text: The NF-κB and MAPKs pathways are key signaling pathways of TNF-α-mediated inflammation. Therefore, we analyzed the mechanisms underlying H-TL1-induced inhibition of TNF-α-mediated inflammation by Western blotting in HEK-293 cells. […] To identify the specific effects of H-TL1 on TNF-α downstream signaling, we induced IL-1β as a potent activator of NF-κB that is specific to that pathway.
as §1, with “The rabbit monoclonal anti-GAPDH antibody was from Santa Cruz Biotechnology (Santa Cruz, CA, USA), and the fluorescent-labeled secondary antibodies were from Li-COR Biosciences (Lincoln, NE, USA).” left out

[5] = system: mRNA expression of pro-inflammatory cytokines in colon tissue of DSS mice; assay: Real-time PCR, cytokine mRNA in DSS-induced colitis; type: in vivo, mouse; conditions: H-TL1 1 mg/kg; DSS induced 1.73- to 41-fold increases; n = 3
Description: as §2
To induce colitis, 6–8 week old male BALB/c mice were administered 2.5% DSS solution in their drinking water for 7–8 consecutive days, ad libitum. Importantly, 30–40 kDa DSS was used to establish the animal model in this study because it is known to induce more severe colitis than 5 and 500 kDa DSS [37]. The mice were concomitantly administered H-TL1 (0.5 or 1 mg/kg) once daily for 7–8 consecutive days by intraperitoneal injection. Establishment of the DSS-induced colitis was evidenced by an increase in DAI, with associated weight loss, loose stool consistency, and presence of blood in the feces. DAI was monitored during the entire experiment and was assessed according to the method described in Table 1.

ATSKPSLKC-OH [H-TL1]
activation (phosphorylation) of JNK, ERK, and IκB in colonic tissue [1]: JNK, ERK, and IκB were activated; however, this effect was inhibited by H-TL1 treatment | inhibition of TNF-α/TNFR2 binding, in words [2]: had little impact on TNF-α/TNFR2 interactions; also recorded: the percent inhibition had no apparent linear relation to the H-TL1 concentration | effect on the binding of TNF-α with TNFR2 (inhibition) ([2]; hrTNF-α 20 ng/mL): approximately 20% | TNF-α-induced expression of ICAM-1 [3]: suppresses TNF-α-induced expression of IL-8, TNF-α, ICAM-1, and VCAM-1 in a concentration-dependent manner | TNF-α-induced expression of IL-8 [3]: suppresses TNF-α-induced expression of IL-8, TNF-α, ICAM-1, and VCAM-1 in a concentration-dependent manner | TNF-α-induced expression of TNF-α [3]: suppresses TNF-α-induced expression of IL-8, TNF-α, ICAM-1, and VCAM-1 in a concentration-dependent manner | TNF-α-induced expression of VCAM-1 [3]: suppresses TNF-α-induced expression of IL-8, TNF-α, ICAM-1, and VCAM-1 in a concentration-dependent manner | inhibition of IL-1β-induced phosphorylation of IκB [4]: failed to inhibit the phosphorylation of IκB induced by IL-1β | mRNA expression of TNF-α, IFN-γ, IL-1β, and IL-6 in DSS colitis [5]: significantly reduced these effects
